We go through 17 molecules from PubChem BioAssay AID248 (DTP/NCI, 2004).

For this assay, the system named is L1210 leukemia ip in BDF1 mice, survival T/C. Description: NCI In Vivo Anticancer Drug Screen. Data for tumor model L1210 Leukemia (intraperitoneal) in B6D2F1 (BDF1) mice. Conditions: endpoint: mean survival time, higher = longer survival. The method in brief:
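Tumor cells were implanted, animals were treated, and survival was followed. The result divides the treated measurement by the vehicle-control measurement.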

Where [1] appears, read: dose: 100.0 mg/kg/injection, schedule: Q01DX009 (ip), vehicle: Klucel (hydroxypropylcellulose) (HPC).
The mark [2] stands for this setting: dose: 100.0 mg/kg/injection, schedule: Q04DX003 (ip), vehicle: Klucel (hydroxypropylcellulose) (HPC).
The mark [3] stands for this setting: dose: 100.0 mg/kg/injection, schedule: Q04DX002 (ip), vehicle: Klucel (hydroxypropylcellulose) (HPC).
Setting [4] is: dose: 200.0 mg/kg/injection, schedule: Q04DX002 (ip), vehicle: Klucel (hydroxypropylcellulose) (HPC).
Where [5] appears, read: dose: 200.0 mg/kg/injection, schedule: Q01DX009 (ip), vehicle: Klucel (hydroxypropylcellulose) (HPC).
Setting [6] is: dose: 200.0 mg/kg/injection, schedule: Q04DX003 (ip), vehicle: Klucel (hydroxypropylcellulose) (HPC).
Setting [7] is: dose: 400.0 mg/kg/injection, schedule: Q01DX009 (ip), vehicle: Klucel (hydroxypropylcellulose) (HPC).
The mark [8] stands for this setting: dose: 400.0 mg/kg/injection, schedule: Q04DX003 (ip), vehicle: Klucel (hydroxypropylcellulose) (HPC).
[9] abbreviates: dose: 25.0 mg/kg/injection, schedule: Q01DX009 (ip), vehicle: water.
Where [10] appears, read: dose: 50.0 mg/kg/injection, schedule: Q01DX009 (ip), vehicle: water.
[11] abbreviates: dose: 100.0 mg/kg/injection, schedule: Q01DX009 (ip), vehicle: water.

Several values for one entry are separate records, joined by “and”; a condition that tells them apart may be missing. Equal entries are not always repeated. Inconclusive results and toxic doses are left out.

Take `CCOC(=O)C(C)(Cc1c(C)cc(C)c(CC(C)(C(=O)OCC)C(=O)OCC)c1C)C(=O)OCC`: the T/C was 95 % of control (dose: 25.0 mg/kg/injection, schedule: Q01DX009 (ip), vehicle: Klucel (hydroxypropylcellulose) (HPC)); 98 % of control (dose: 25.0 mg/kg/injection, schedule: Q04DX003 (ip), vehicle: Klucel (hydroxypropylcellulose) (HPC)); 91 % of control (dose: 50.0 mg/kg/injection, schedule: Q01DX009 (ip), vehicle: Klucel (hydroxypropylcellulose) (HPC)); 96 % of control (dose: 50.0 mg/kg/injection, schedule: Q04DX003 (ip), vehicle: Klucel (hydroxypropylcellulose) (HPC)); 96 % of control under setting [1]; 100 % of control under setting [2].

`CC(CCC(=O)O)C1CCC2C3CCC4CC(OC=O)CCC4(C)C3CC(OC=O)C12C` (stereo not drawn): the T/C is, setting by setting: (dose: 50.0 mg/kg/injection, schedule: Q01DX009 (ip), vehicle: saline with Tween-80) 101 % of control; (dose: 100.0 mg/kg/injection, schedule: Q01DX009 (ip), vehicle: saline with Tween-80) 92 % of control; (dose: 100.0 mg/kg/injection, schedule: Q04DX003 (ip), vehicle: saline with Tween-80) 96 % of control; (dose: 200.0 mg/kg/injection, schedule: Q01DX009 (ip), vehicle: saline with Tween-80) 105 % of control.

As for `CC1(CC(=O)O)CCCCC1CC(=O)O` (stereo not drawn), the T/C was 110 % of control under setting [3]; 103 % of control under setting [4]; 97 % of control (dose: 400.0 mg/kg/injection, schedule: Q04DX002 (ip), vehicle: Klucel (hydroxypropylcellulose) (HPC)).

For the molecule `NCC1C2CC3CC(C2)CC1C3` (stereo not drawn), the T/C was 106 % of control (dose: 12.5 mg/kg/injection, schedule: Q01DX001 (ip), vehicle: saline); 97 % of control (dose: 25.0 mg/kg/injection, schedule: Q01DX001 (ip), vehicle: saline); 93 % of control (dose: 50.0 mg/kg/injection, schedule: Q01DX001 (ip), vehicle: saline); 98 % of control under setting [3]; 96 % of control under setting [4].

Take `COC1C=CC=CC=C1`: the T/C (dose: 15.0 mg/kg/injection, schedule: Q01DX009 (ip), vehicle: saline with Tween-80) is 108 % of control; the T/C (dose: 30.0 mg/kg/injection, schedule: Q01DX009 (ip), vehicle: saline with Tween-80) was 113 % of control; the T/C (dose: 60.0 mg/kg/injection, schedule: Q01DX009 (ip), vehicle: saline with Tween-80) was 103 % of control.

Consider `CC(=O)Nc1c(Cl)cc2c(c1Cl)Cc1cc(C#N)ccc1-2`, for which the T/C is, setting by setting: (dose: 100.0 mg/kg/injection, schedule: Q01DX001 (ip), vehicle: carboxymethylcellulose (CMC)) 102 % of control; (dose: 200.0 mg/kg/injection, schedule: Q01DX001 (ip), vehicle: carboxymethylcellulose (CMC)) 102 % of control; (dose: 400.0 mg/kg/injection, schedule: Q01DX001 (ip), vehicle: carboxymethylcellulose (CMC)) 98 % of control.

For `CO/N=C/c1ccc([N+](=O)[O-])cc1`, the T/C (dose: 100.0 mg/kg/injection, schedule: Q01DX001 (ip), vehicle: Klucel (hydroxypropylcellulose) (HPC)) is 96 % of control; the T/C (dose: 200.0 mg/kg/injection, schedule: Q01DX001 (ip), vehicle: Klucel (hydroxypropylcellulose) (HPC)) is 95 % of control; the T/C (dose: 400.0 mg/kg/injection, schedule: Q01DX001 (ip), vehicle: Klucel (hydroxypropylcellulose) (HPC)) is 98 % of control.

In the case of `O=C(CBr)c1ccc2c3c(cccc13)C=C2`, the T/C (dose: 75.0 mg/kg/injection, schedule: Q01DX001 (ip), vehicle: saline) was 98 % of control.

Take `Cc1[nH]c(=O)[nH]c(=O)c1[N+](=O)[O-]`: the T/C was 94 % of control under setting [1]; 102 % of control under setting [2]; 101 % of control under setting [5]; 104 % of control under setting [6]; 87 % of control under setting [7]; 102 % of control under setting [8].

`Brc1cnc[nH]1`: the T/C by setting is: under setting [9], 97 % of control; under setting [10], 90 % of control; under setting [11], 102 % of control; (dose: 100.0 mg/kg/injection, schedule: Q04DX002 (ip), vehicle: saline) 100 % of control; (dose: 200.0 mg/kg/injection, schedule: Q04DX002 (ip), vehicle: saline) 95 % of control; (dose: 400.0 mg/kg/injection, schedule: Q01DX009 (ip), vehicle: water) 98 % of control. Besides, the T/C (dose: 400.0 mg/kg/injection, schedule: Q04DX002 (ip), vehicle: saline) was 92 % of control.

On to `CN=NC(C)C`, for which the T/C by setting is: (dose: 100.0 mg/kg/injection, schedule: Q01DX001 (ip), vehicle: saline with Tween-80) 97 % of control; (dose: 200.0 mg/kg/injection, schedule: Q01DX001 (ip), vehicle: saline with Tween-80) 107 % of control; (dose: 400.0 mg/kg/injection, schedule: Q01DX001 (ip), vehicle: saline with Tween-80) 112 % of control.

`COc1cc(C(=O)Nc2ccc(C3=NCCN3)cc2)ccc1C(=O)Nc1ccc(C2=NCCN2)cc1`: the T/C was 159 % of control and 172 % of control (dose: 15.0 mg/kg/injection, schedule: Q01DX Z (ip), vehicle: saline); 212 % of control (dose: 30.0 mg/kg/injection, schedule: Q01DX Z (ip), vehicle: saline); 101 % of control (dose: 60.0 mg/kg/injection, schedule: Q01DX010 (oral), vehicle: saline); 188 % of control (dose: 60.0 mg/kg/injection, schedule: Q01DX Z (ip), vehicle: saline); 104 % of control (dose: 120.0 mg/kg/injection, schedule: Q01DX010 (oral), vehicle: saline); 98 % of control (dose: 240.0 mg/kg/injection, schedule: Q01DX010 (oral), vehicle: saline).

Regarding `[Cl][Cu][Cl]`, the T/C is 100 % of control (dose: 3.13 mg/kg/injection, schedule: Q01DX009 (ip), vehicle: saline); 95 % of control (dose: 6.25 mg/kg/injection, schedule: Q01DX009 (ip), vehicle: saline); 102 % of control (dose: 6.25 mg/kg/injection, schedule: Q04DX003 (ip), vehicle: saline); 90 % of control (dose: 12.5 mg/kg/injection, schedule: Q01DX009 (ip), vehicle: saline); 107 % of control (dose: 12.5 mg/kg/injection, schedule: Q04DX003 (ip), vehicle: saline).

For the molecule `Cc1ccc(C2OC2(C(=O)c2ccccc2)c2ccccc2)cc1` (stereo not drawn), the T/C under setting [1] was 106 % of control; the T/C under setting [2] is 96 % of control; the T/C under setting [5] is 108 % of control; the T/C under setting [6] was 104 % of control; the T/C under setting [7] is 92 % of control; the T/C under setting [8] is 98 % of control.

In the case of `O=C(N/N=C/c1ccc2c(c1)CCC2)c1cccc(O)c1`, the T/C is 96 % of control under setting [2], 95 % of control under setting [6] and 91 % of control under setting [8].

In the case of `CS(=O)(=O)O/C=C1\C(=O)OC2CCCCC12` (stereo not drawn), the T/C by setting is: (dose: 12.5 mg/kg/injection, schedule: Q01DX009 (ip), vehicle: water) 111 % of control; under setting [9], 105 % of control; under setting [10], 100 % of control; under setting [11], 105 % of control; (dose: 200.0 mg/kg/injection, schedule: Q01DX009 (ip), vehicle: water) 106 % of control.

In the case of `CCCCCCCCCCCCCCCCC(/C=N/N=C(N)N)=N\N=C(N)N`, the T/C by setting is: (dose: 15.0 mg/kg/injection, schedule: Q01DX Z (ip), vehicle: methylcellulose (MC)) 95 % of control; (dose: 30.0 mg/kg/injection, schedule: Q01DX Z (ip), vehicle: methylcellulose (MC)) 98 % of control; (dose: 60.0 mg/kg/injection, schedule: Q01DX Z (ip), vehicle: methylcellulose (MC)) 110 % of control; (dose: 120.0 mg/kg/injection, schedule: Q01DX Z (ip), vehicle: methylcellulose (MC)) 103 % of control; (dose: 240.0 mg/kg/injection, schedule: Q01DX Z (ip), vehicle: methylcellulose (MC)) 101 % of control; (dose: 360.0 mg/kg/injection, schedule: Q01DX Z (ip), vehicle: methylcellulose (MC)) 97 % of control. Moreover, the T/C reads like this: (dose: 480.0 mg/kg/injection, schedule: Q01DX Z (ip), vehicle: methylcellulose (MC)) 98 % of control; (dose: 720.0 mg/kg/injection, schedule: Q01DX Z (oral), vehicle: methylcellulose (MC)) 97 % of control; (dose: 960.0 mg/kg/injection, schedule: Q01DX Z (oral), vehicle: methylcellulose (MC)) 93 % of control.
